{"source": "the NIST ThermoML archive (doi:10.1016/j.jct.2015.08.036)", "key": {"[1]": {"details": "101.33 kPa, Liquid; for viscosity: Capillary tube (Ostwald / Ubbelohde) method; for mass density: Pycnometric method"}, "[2]": {"assay": "xn = mol fraction of the nth substance listed", "details": "100 kPa, Liquid, x2 = 0.25; for electrical conductivity: Alternating current cell with electrodes; for viscosity: Capillary tube (Ostwald / Ubbelohde) method; for mass density: Pycnometric method"}}, "note": "Numbers after ± are expanded uncertainties.", "data": [{"smiles": "CCO", "note": "[ethanol]", "values": [{"measurement": "viscosity", "setting": "[1]; 298.15 K", "value": "1.096 ± 0.066", "unit": "mPa·s"}, {"measurement": "mass density", "setting": "[1]; 298.15 K", "value": "785.2 ± 2", "unit": "kg/m3"}, {"measurement": "viscosity", "setting": "[1]; 303.15 K", "value": "1.003 ± 0.06", "unit": "mPa·s"}, {"measurement": "mass density", "setting": "[1]; 303.15 K", "value": "781 ± 2", "unit": "kg/m3"}, {"measurement": "viscosity", "setting": "[1]; 308.15 K", "value": "0.914 ± 0.055", "unit": "mPa·s"}, {"measurement": "mass density", "setting": "[1]; 308.15 K", "value": "776.7 ± 2", "unit": "kg/m3"}, {"measurement": "viscosity", "setting": "[1]; 313.15 K", "value": "0.834 ± 0.05", "unit": "mPa·s"}, {"measurement": "mass density", "setting": "[1]; 313.15 K", "value": "772.3 ± 2", "unit": "kg/m3"}, {"measurement": "viscosity", "setting": "[1]; 318.15 K", "value": "0.764 ± 0.046", "unit": "mPa·s"}, {"measurement": "mass density", "setting": "[1]; 318.15 K", "value": "766.3 ± 2", "unit": "kg/m3"}]}, {"smiles": "CC(N)=O", "note": "[ethanamide] + N#C[S-].[K+]", "values": [{"measurement": "electrical conductivity", "setting": "[2]; 298.15 K", "value": "0.117 ± 0.0047", "unit": "S/m"}, {"measurement": "viscosity", "setting": "[2]; 298.15 K", "value": "190.16 ± 12", "unit": "mPa·s"}, {"measurement": "mass density", "setting": "[2]; 298.15 K", "value": "1197.1 ± 2.1", "unit": "kg/m3"}, {"measurement": "electrical conductivity", "setting": "[2]; 303.15 K", "value": "0.205 ± 0.0082", "unit": "S/m"}, {"measurement": "viscosity", "setting": "[2]; 303.15 K", "value": "127.31 ± 7.9", "unit": "mPa·s"}, {"measurement": "mass density", "setting": "[2]; 303.15 K", "value": "1193.7 ± 2.1", "unit": "kg/m3"}, {"measurement": "electrical conductivity", "setting": "[2]; 308.15 K", "value": "0.311 ± 0.012", "unit": "S/m"}, {"measurement": "viscosity", "setting": "[2]; 308.15 K", "value": "88.81 ± 5.4", "unit": "mPa·s"}, {"measurement": "mass density", "setting": "[2]; 308.15 K", "value": "1190.5 ± 2.1", "unit": "kg/m3"}, {"measurement": "electrical conductivity", "setting": "[2]; 313.15 K", "value": "0.429 ± 0.017", "unit": "S/m"}, {"measurement": "viscosity", "setting": "[2]; 313.15 K", "value": "63.77 ± 3.9", "unit": "mPa·s"}, {"measurement": "mass density", "setting": "[2]; 313.15 K", "value": "1187.7 ± 2.1", "unit": "kg/m3"}, {"measurement": "electrical conductivity", "setting": "[2]; 318.15 K", "value": "0.574 ± 0.023", "unit": "S/m"}, {"measurement": "viscosity", "setting": "[2]; 318.15 K", "value": "48.11 ± 2.9", "unit": "mPa·s"}, {"measurement": "mass density", "setting": "[2]; 318.15 K", "value": "1184.5 ± 2.1", "unit": "kg/m3"}]}]}
